Reference: US20240217969A1, “SUBSTITUTED PYRROLE CARBOXAMIDES, PROCESS FOR THEIR PREPARATION AND THEIR USE AS KINASE INHIBITORS” (priority 2021, published 2024)

Legend:
[1] = target: T1, aldehyde oxidases (human liver cytosol) (Homo sapiens, UniProt Q06278); format: in vitro ADME; conditions: human liver cytosol 1 mg/mL, 1 μM compound; for HLC % remaining (1 h incub.): 60 min incubation; for HLC % remaining (1 h incub.) / HLC T½ min: pH 7.4, 37° C.; for IntCl (Intrinsic Clearance): half-life approach
T1 construct: added to human liver cytosol (1 mg/mL protein content); from tissue; host or cells: human liver cytosol
T1 sequence (Q06278 whole entry): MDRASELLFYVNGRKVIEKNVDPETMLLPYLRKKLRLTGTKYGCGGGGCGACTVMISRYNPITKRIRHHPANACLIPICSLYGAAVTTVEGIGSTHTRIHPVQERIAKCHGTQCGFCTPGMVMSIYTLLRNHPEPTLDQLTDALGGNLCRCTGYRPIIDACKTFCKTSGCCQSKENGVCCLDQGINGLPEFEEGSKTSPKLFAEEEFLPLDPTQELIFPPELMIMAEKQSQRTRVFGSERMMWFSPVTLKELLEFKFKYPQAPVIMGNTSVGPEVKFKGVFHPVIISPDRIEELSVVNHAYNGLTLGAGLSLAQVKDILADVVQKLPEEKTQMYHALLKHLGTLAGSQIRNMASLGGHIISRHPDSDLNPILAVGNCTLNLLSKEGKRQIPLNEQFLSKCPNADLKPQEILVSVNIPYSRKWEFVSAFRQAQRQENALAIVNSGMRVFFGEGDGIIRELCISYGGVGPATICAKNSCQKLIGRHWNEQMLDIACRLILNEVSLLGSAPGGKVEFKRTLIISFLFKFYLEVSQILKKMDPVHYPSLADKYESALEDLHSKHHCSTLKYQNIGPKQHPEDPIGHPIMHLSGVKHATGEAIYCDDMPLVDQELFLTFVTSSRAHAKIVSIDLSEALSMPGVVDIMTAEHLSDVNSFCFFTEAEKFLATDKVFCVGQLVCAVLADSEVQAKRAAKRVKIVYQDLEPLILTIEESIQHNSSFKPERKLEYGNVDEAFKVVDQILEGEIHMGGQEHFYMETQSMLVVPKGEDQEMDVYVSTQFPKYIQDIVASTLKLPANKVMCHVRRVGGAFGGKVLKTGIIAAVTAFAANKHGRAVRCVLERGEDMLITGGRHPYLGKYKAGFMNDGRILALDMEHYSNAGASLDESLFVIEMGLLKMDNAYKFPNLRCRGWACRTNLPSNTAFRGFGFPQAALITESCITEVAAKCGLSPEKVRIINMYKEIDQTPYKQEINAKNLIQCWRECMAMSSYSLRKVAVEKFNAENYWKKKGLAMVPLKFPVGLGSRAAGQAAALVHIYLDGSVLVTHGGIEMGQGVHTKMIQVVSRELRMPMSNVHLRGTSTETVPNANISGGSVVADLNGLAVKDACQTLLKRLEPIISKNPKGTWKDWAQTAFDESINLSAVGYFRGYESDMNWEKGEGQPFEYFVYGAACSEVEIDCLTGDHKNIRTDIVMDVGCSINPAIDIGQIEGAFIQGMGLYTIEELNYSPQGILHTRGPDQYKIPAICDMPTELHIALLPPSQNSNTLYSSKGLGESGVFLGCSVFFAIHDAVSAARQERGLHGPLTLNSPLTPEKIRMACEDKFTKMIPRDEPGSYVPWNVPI
Description: The aldehyde oxidases involvement in the metabolism of the test item was determined by comparison of the intrinsic clearance values in the presence and absence of aldehyde oxidases inhibitor hydralazine hydrochloride. The purpose of the study was to evaluate the in-vitro intrinsic clearance, the metabolic stability towards aldehyde oxidases (AO) activity and the metabolism of the test item in human liver cytosol. The intrinsic clearance was determined using the half-life approach, by measuring the substrate disappearance along 60 minutes incubation with human liver cytosol. Incubations were performed at the concentration of 1 μM. […] HPLC-MS/MS was used for the detection of the compound left over during the incubation. For intrinsic clearance determination samples were analyzed by high performance liquid chromatography (HPLC) on-line with mass spectrometry (MS) equipment. For the determination of aldehyde oxidases activity (i.e. positive control) of cytosol, phthalazine was incubated with human liver cytosol in presence and absence of the aldehyde oxidases inhibitor. On the day of the incubation, the compound was dissolved in DMSO at the concentration of 10 mM. Aliquots of this solution were added to the test system to a final concentration of […]. The percentage of DMSO in the final incubates was […]. Aliquots of the test item were added to human liver cytosol (1 mg/mL protein content) in Dulbecco's buffer, pH 7.4 at 37° C., to reach final concentration of 1 μM. Incubations were performed in a 48-well plate, under shaking. At 0, 5, 10, 20, 30 and 60 minutes incubation, 50 μL aliquots of the incubate were sampled, poured in 80 μL of ice-cold acetonitrile and 20 μL of 1 μM warfarin in acetonitrile (injection control) and centrifuged at 2500 rpm for 20 minutes. The supernatant was immediately analysed by LC-MS/MS.
The test item was incubated in parallel, in duplicate, at the concentration of 1 μM in Dulbecco's buffer, pH 7.4 for 60 min at 37° C. in the presence of 10 μM hydralazine hydrochloride (aldehyde oxidases inhibitor).
The chemical stability of the test item was checked in parallel by incubating the test item in single at the concentration of 1 μM in Dulbecco's buffer, pH 7.4 for 60 min at 37° C. (negative control).
The intrinsic clearance (CLint) was calculated using the half-life approach. Half-life and CLint were determined from the concentration (area counts) remaining at the different sampling points using the LC-MS/MS method. By plotting the natural logarithmic area of the compound remaining against the time, the slope was calculated by linear regression analysis and converted into the half-life (t½) and CLint expressed as μL/min/mg protein according to the following formulae: […]

Cdc7 = Cdc7 (Homo sapiens, UniProt O00311); experiment: Cdc7 biochemical assay, ADPGlo assay format
Sequence of Cdc7 (O00311 whole entry): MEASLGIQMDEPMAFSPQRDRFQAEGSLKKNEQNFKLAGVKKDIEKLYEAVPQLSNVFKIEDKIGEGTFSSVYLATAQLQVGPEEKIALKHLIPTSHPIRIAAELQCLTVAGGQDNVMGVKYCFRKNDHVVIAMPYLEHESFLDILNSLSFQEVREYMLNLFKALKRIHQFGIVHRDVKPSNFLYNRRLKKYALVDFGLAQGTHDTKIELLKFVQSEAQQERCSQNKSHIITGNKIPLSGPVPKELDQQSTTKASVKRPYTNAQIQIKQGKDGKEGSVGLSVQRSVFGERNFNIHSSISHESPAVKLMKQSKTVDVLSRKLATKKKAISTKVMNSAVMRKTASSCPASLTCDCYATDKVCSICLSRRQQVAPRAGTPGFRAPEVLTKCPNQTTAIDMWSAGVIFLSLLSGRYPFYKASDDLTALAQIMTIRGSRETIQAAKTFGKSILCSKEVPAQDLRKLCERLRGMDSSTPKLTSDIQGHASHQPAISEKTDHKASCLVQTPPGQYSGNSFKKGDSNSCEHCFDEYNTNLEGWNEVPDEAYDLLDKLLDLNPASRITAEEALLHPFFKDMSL
Sequence of Cdc7 (Q9UBU7 whole entry partner): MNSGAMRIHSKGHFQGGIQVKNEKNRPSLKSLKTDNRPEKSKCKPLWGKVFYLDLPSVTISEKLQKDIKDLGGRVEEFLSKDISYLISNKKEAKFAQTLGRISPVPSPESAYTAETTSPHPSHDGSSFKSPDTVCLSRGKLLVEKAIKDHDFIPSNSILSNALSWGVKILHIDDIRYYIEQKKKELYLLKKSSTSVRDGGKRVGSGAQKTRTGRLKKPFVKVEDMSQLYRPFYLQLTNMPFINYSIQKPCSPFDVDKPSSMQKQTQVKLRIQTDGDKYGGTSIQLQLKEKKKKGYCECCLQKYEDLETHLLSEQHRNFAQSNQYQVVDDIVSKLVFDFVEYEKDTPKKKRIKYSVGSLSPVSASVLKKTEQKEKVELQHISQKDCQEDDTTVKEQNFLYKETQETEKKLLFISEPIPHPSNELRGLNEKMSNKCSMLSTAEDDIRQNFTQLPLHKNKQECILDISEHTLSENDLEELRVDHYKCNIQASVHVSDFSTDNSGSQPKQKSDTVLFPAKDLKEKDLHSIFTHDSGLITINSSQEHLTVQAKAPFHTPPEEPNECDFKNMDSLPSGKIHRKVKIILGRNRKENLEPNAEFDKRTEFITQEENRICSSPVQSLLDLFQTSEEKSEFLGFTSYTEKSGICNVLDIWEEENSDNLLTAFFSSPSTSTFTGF
Description: The biochemical activity of compounds was determined by incubation with specific enzymes and substrate, followed by quantification of the ADP product. Compounds were 4-fold serially diluted from 10 to 0.0006 uM; in the case of the pre-incubation step, the enzyme is added to the inhibitor solution and the mixture is left to incubate for 30 minutes at room temperature (r.t.). The reaction started with the addition of the substrate and the ATP, when the enzyme was already present in the preincubation step, or substrate, ATP and enzyme when the preincubation step was not present. The concentrations of ATP, substrate and reaction buffer are described above. The assays were run in a robotized format on 384-well plates. […] At the end of the incubation time, an equal volume of ADPGlo Reagent 1 (Promega) was added to stop the reaction and to remove all unreacted ATP. After 60 minutes, an equal volume of ADPGlo Reagent 2 (Promega) was added to convert ADP in ATP and then ATP in light by luciferase reaction.
y=bottom+(top−bottom)/(1+10^((log IC50−x)*slope))
where x is the logarithm of the inhibitor concentration, y is the response; y starts at bottom and goes to top with a sigmoid shape.

Structure (SMILES) | HLC % remaining (1 h incub.) [1] [%] | IntCl (Intrinsic Clearance) [1] [μL/min/mg protein] | HLC T½ min [1] [h] | IC50 (Cdc7) [nM]
NC(=O)c1cc(-c2ccnc3[nH]ccc23)[nH]c1-c1ccc(Cl)cc1Cl [compound 46, 2-(2,4-dichlorophenyl)-5-(1H-pyrrolo[2,3-b]pyridin-4-yl)-1H-pyrrole-3-carboxamide] | 100 | 2.9 | 3.98 | 1
NC(=O)c1cc(-c2c[nH]nc2C(F)(F)F)[nH]c1-c1ccc(Cl)cc1Cl [compound 48, 2-(2,4-dichlorophenyl)-5-[3-(trifluoromethyl)-1H-pyrazol-4-yl]-1H-pyrrole-3-carboxamide] | 100 | 2.9 | 3.98 | 188
Cc1ccc(-c2[nH]c(-c3cn[nH]c3)cc2C(N)=O)c(F)c1 [compound 49, 2-(2-fluoro-4-methylphenyl)-5-(1H-pyrazol-4-yl)-1H-pyrrole-3-carboxamide] | 100 | 2.9 | 3.98 | 18
